Earlier results, collected in patent US20170037184A1, “VITAMIN E-BASED NANOCARRIERS FOR DRUG DELIVERY AND METHODS OF MAKING AND USING THE SAME” (THE CORPORATION OF MERCER UNIVERSITY, priority 2014, published 2017).

Conditions: ethylenediamine group of DET conjugated to polyasparagine

For NCCNCCN [DET, diethylenetriamine], the pKa1 is listed as 9.5 and the pKa2 is listed as 6.0.
